# Patent US20260285857A1, “BICYCLIC AND HETEROCYCLIC AMIDE COMPOUNDS” (priority 2024, published 2026)
# Test system: immunoglobulin light chain protein WIL-FL T46L
# Experiment: Differential scanning fluorimetry (thermal shift) assay
# Format: binding
# Conditions: Table B; temperature shift [Tm]compound-[Tm]vehicle; recombinant WIL-FL T46L
row,Structure (SMILES),DSF
1,"Cc1n[nH]c([C@@H]2[C@@H]3CO[C@@]2(c2nc4c(C)cc(N5CC[C@](C)(c6ccccc6)C5)cn4n2)C3)n1 [Compound 492, 8-methyl-6-[(3R)-3-methyl-3-phenyl-pyrrolidin-1-yl]-2-[(1S,4R,5S)-5-(3-methyl-1H-1,2,4-triazol-5-yl)-2-oxabicyclo[2.1.1]hexan-1-yl]-[1,2,4]triazolo[1,5-a]pyridine]",***** (>2.5° C.=*****)
2,Cc1nc(C2C3COC2(c2nc4c(C)cc(N5CC[C@](C)(c6ccccc6)C5)cn4n2)C3)n(C)n1 (some centres unmarked) [Compound 493],***** (>2.5° C.=*****)
3,Cc1cc(N2CC[C@](C)(c3ccccc3)C2)cn2nc(C34CC(CO3)C4c3ncn[nH]3)nc12 (some centres unmarked) [Compound 494],***** (>2.5° C.=*****)
4,C[C@]1(c2ccccc2)CCN(c2cc(CO)c3nc(C45CC(CO4)C5C(N)=O)nn3c2)C1 (some centres unmarked) [Compound 495],***** (>2.5° C.=*****)
5,"Cc1cc(N2CC[C@@](C)(n3ccc(C(F)(F)F)n3)C2)cn2nc(C34CC(CO3)C4c3nc(N)n[nH]3)nc12 (stereo partly drawn) [Compound 496, 5-(1-(8-methyl-6-((R)-3-methyl-3-(3-(trifluoromethyl)-1H-pyrazol-1-yl)pyrrolidin-1-yl)-[1,2,4]triazolo[1,5-a]pyridin-2-yl)-2-oxabicyclo[2.1.1]hexan-5-yl)-1H-1,2,4-triazol-3-amine]",**** (>1.5-2.5° C.=****)
6,"Cc1cc(N2CC[C@](C)(c3ccccc3)C2)cn2nc(C34CC(CO3)C4COC3CC4(C3)CN(c3ccnc(O)c3)C4)nc12 (stereo partly drawn) [Compound 497, 4-(6-((1-(8-methyl-6-((R)-3-methyl-3-phenylpyrrolidin-1-yl)-[1,2,4]triazolo[1,5-a]pyridin-2-yl)-2-oxabicyclo[2.1.1]hexan-5-yl)methoxy)-2-azaspiro[3.3]heptan-2-yl)pyridin-2-ol]",***** (>2.5° C.=*****)
7,COC(=O)NCC1C2COC1(c1nc3c(C)cc(N4CC[C@](C)(c5ccccc5)C4)cn3n1)C2 (some centres unmarked) [Compound 498],***** (>2.5° C.=*****)
8,COc1ccc(OCC2C3COC2(c2nc4c(C)cc(N5CC[C@](C)(c6ccccc6)C5)cn4n2)C3)cn1 (some centres unmarked) [Compound 499],***** (>2.5° C.=*****)
9,Cc1cc(N2CC[C@](C)(c3ccccc3)C2)cn2nc(C34CC(CO3)C4COc3ccc(=O)[nH]c3)nc12 (some centres unmarked) [Compound 500],***** (>2.5° C.=*****)
10,Cc1cc(N2CC[C@](C)(c3ccccc3)C2)cn2nc(C34CC(CO3)C4COC3CC4(CNC4)C3)nc12 (some centres unmarked) [Compound 501],***** (>2.5° C.=*****)
11,Cc1cc(N2CC[C@](C)(c3ccccc3)C2)cn2nc(C34CC(CO3)C4COC3CCN(c4ccnc(C(=O)O)c4)CC3)nc12 (some centres unmarked) [Compound 502],***** (>2.5° C.=*****)
12,Cc1cc(N2CC[C@](C)(c3ccccc3)C2)cn2nc(C34CC(CO3)C4COC3CCN(c4cccc(C(=O)O)n4)CC3)nc12 (some centres unmarked) [Compound 503],***** (>2.5° C.=*****)
13,Cc1cc(N2CC[C@](C)(c3ccccc3)C2)cn2nc(C34CC(CO3)C4Cc3nnn[nH]3)nc12 (some centres unmarked) [Compound 504],***** (>2.5° C.=*****)
14,"Cc1cc(N2CC[C@](C)(c3ccccc3)C2)cn2nc(C34CC(CO3)C4Cc3nnc[nH]3)nc12 (stereo partly drawn) [Compound 505, 2-(5-((4H-1,2,4-triazol-3-yl)methyl)-2-oxabicyclo[2.1.1]hexan-1-yl)-8-methyl-6-((R)-3-methyl-3-phenylpyrrolidin-1-yl)-[1,2,4]triazolo[1,5-a]pyridine]",***** (>2.5° C.=*****)
15,"Cc1cc(N2CC[C@](C)(c3ccccc3)C2)cn2nc(C34CC(CO3)C4CN3CC4C(C3)C4C(=O)O)nc12 (stereo partly drawn) [Compound 506, 3-((1-(8-methyl-6-((R)-3-methyl-3-phenylpyrrolidin-1-yl)-[1,2,4]triazolo[1,5-a]pyridin-2-yl)-2-oxabicyclo[2.1.1]hexan-5-yl)methyl)-3-azabicyclo[3.1.0]hexane-6-carboxylic acid]",***** (>2.5° C.=*****)
16,"Cc1cc(N2CC[C@](C)(c3cccc(F)c3)C2)cn2nc(C34CC(CO3)C4N3CC4(CC4)NC3=O)nc12 (stereo partly drawn) [Compound 507, 6-(1-(6-((R)-3-(3-fluorophenyl)-3-methylpyrrolidin-1-yl)-8-methyl-[1,2,4]triazolo[1,5-a]pyridin-2-yl)-2-oxabicyclo[2.1.1]hexan-5-yl)-4,6-diazaspiro[2.4]heptan-5-one]",***** (>2.5° C.=*****)
17,Cc1cc(N2CC[C@](C)(c3cccc(F)c3)C2)cn2nc(C34CC(CO3)C4N)nc12 (some centres unmarked) [Compound 508],***** (>2.5° C.=*****)
18,"Cc1cc(N2CC[C@](C)(c3ccccc3)C2)cn2nc(C34CC(CO3)C4N3CC4(COC4)NC3=O)nc12 (stereo partly drawn) [Compound 509, 7-(1-(8-methyl-6-((R)-3-methyl-3-phenylpyrrolidin-1-yl)-[1,2,4]triazolo[1,5-a]pyridin-2-yl)-2-oxabicyclo[2.1.1]hexan-5-yl)-2-oxa-5,7-diazaspiro[3.4]octan-6-one]",***** (>2.5° C.=*****)
19,"Cc1cc(N2CC[C@](C)(c3ccccc3)C2)cn2nc(C34CC(CO3)C4NCC3(N)COC3)nc12 (stereo partly drawn) [Compound 510, N-[(3-aminooxetan-3-yl)methyl]-1-[8-methyl-6-[(3R)-3-methyl-3-phenyl-pyrrolidin-1-yl]-[1,2,4]triazolo[1,5-a]pyridin-2-yl]-2-oxabicyclo[2.1.1]hexan-5-amine]",***** (>2.5° C.=*****)

row,Structure (SMILES),DSF
1,Cc1cc(N2CC[C@](C)(c3ccccc3)C2)cn2nc(C34CC(CO3)C4N3CC4(CC(CO)C4)NC3=O)nc12 (some centres unmarked) [Compound 511],***** (>2.5° C.=*****)
2,"Cc1cc(N2CC3(CCC3c3cccc(F)c3)C2)cn2nc(C34CC(CO3)C4N3CC4(CC4)NC3=O)nc12 (centres unmarked) [Compound 512, 6-[1-[6-[7-(3-fluorophenyl)-2-azaspiro[3.3]heptan-2-yl]-8-methyl-[1,2,4]triazolo[1,5-a]pyridin-2-yl]-2-oxabicyclo[2.1.1]hexan-5-yl]-4,6-diazaspiro[2.4]heptan-5-one]",***** (>2.5° C.=*****)
3,"Cc1cc(N2CC[C@](C)(c3ccccc3Cl)C2)cn2nc(C34CC(CO3)C4N3CC4(CC4)NC3=O)nc12 (stereo partly drawn) [Compound 513, 6-[1-[6-[(3R)-3-(2-chlorophenyl)-3-methyl-pyrrolidin-1-yl]-8-methyl-[1,2,4]triazolo[1,5-a]pyridin-2-yl]-2-oxabicyclo[2.1.1]hexan-5-yl]-4,6-diazaspiro[2.4]heptan-5-one]",***** (>2.5° C.=*****)
4,Cc1cc(N2CC[C@](C)(c3ccccc3)C2)cn2nc(C34CC(CO3)C4N3CC4(CNC4)NC3=O)nc12 (some centres unmarked) [Compound 515],***** (>2.5° C.=*****)
5,Cc1cc(N2CC[C@](C)(c3ccccc3)C2)cn2nc(C34CC(CO3)C4N3CC4(CN(c5cccc(C(=O)O)n5)C4)NC3=O)nc12 (some centres unmarked) [Compound 516],***** (>2.5° C.=*****)
6,Cc1cc(N2CC[C@](C)(c3ccccc3)C2)cn2nc(C34CC(CO3)C4N3CC4(CN(C(=O)C5CC[C@@H](C(=O)O)O5)C4)NC3=O)nc12 (some centres unmarked) [Compound 517],***** (>2.5° C.=*****)
7,COC(C)(CC(=O)N1CC2(C1)CN(C1C3COC1(c1nc4c(C)cc(N5CC[C@](C)(c6ccccc6)C5)cn4n1)C3)C(=O)N2)C(=O)O (some centres unmarked) [Compound 518],***** (>2.5° C.=*****)
8,Cc1cc(N2CC[C@](C)(c3ccccc3)C2)cn2nc([C@@]34C[C@@H](CO3)[C@H]4N3CC4(CN(c5cccc(C(=O)O)n5)C4)NC3=O)nc12 [Compound 519],***** (>2.5° C.=*****)
9,Cc1cc(N2CC[C@](C)(c3ccccc3)C2)cn2nc([C@]34C[C@H](CO3)[C@@H]4N3CC4(CN(c5cccc(C(=O)O)n5)C4)NC3=O)nc12 [Compound 520],***** (>2.5° C.=*****)
10,Cc1cc(N2CC[C@](C)(c3ccccc3)C2)cn2nc(C34CC(CO3)C4NCC3(N)CCOCC3)nc12 (some centres unmarked) [Compound 521],***** (>2.5° C.=*****)
11,Cc1cc(N2CC[C@](C)(c3ccccc3)C2)cn2nc(C34CC(CO3)C4N3CC4(CCOCC4)NC3=O)nc12 (some centres unmarked) [Compound 522],***** (>2.5° C.=*****)
12,Cc1cc(N2CC[C@](C)(c3ccccc3)C2)cn2nc([C@]34C[C@H](CO3)[C@@H]4N3CC4(CC4)NC3=O)nc12 [Compound 523],***** (>2.5° C.=*****)
13,Cc1cc(N2CC[C@](C)(c3ccccc3)C2)cn2nc([C@@]34C[C@@H](CO3)[C@H]4N3CC4(CC4)NC3=O)nc12 [Compound 524],***** (>2.5° C.=*****)
14,Cc1cc(N2CC[C@](C)(c3ccccc3)C2)cn2nc(C34CC(CO3)C4N3C[C@]4(CC[C@H](C(=O)O)CC4)NC3=O)nc12 (some centres unmarked) [Compound 525],***** (>2.5° C.=*****)
15,Cc1cc(N2CC[C@](C)(c3ccccc3)C2)cn2nc(C34CC(CO3)C4N3C[C@]4(CC[C@@H](C(=O)O)CC4)NC3=O)nc12 (some centres unmarked) [Compound 526],***** (>2.5° C.=*****)
16,"Cc1cc(N2CC[C@](C)(c3ccccc3)C2)cn2nc(C34CC(CO3)C4N3CCOCC3)nc12 (stereo partly drawn) [Compound 527, 4-(1-(8-methyl-6-((R)-3-methyl-3-phenylpyrrolidin-1-yl)-[1,2,4]triazolo[1,5-a]pyridin-2-yl)-2-oxabicyclo[2.1.1]hexan-5-yl)morpholine]",***** (>2.5° C.=*****)
17,"Cc1cc(N2CC[C@](C)(c3ccccc3)C2)cn2nc(C34CC(CO3)C4NCC(C)(C)O)nc12 (stereo partly drawn) [Compound 528, 2-methyl-1-[[1-[8-methyl-6-[(3R)-3-methyl-3-phenyl-pyrrolidin-1-yl]-[1,2,4]triazolo[1,5-a]pyridin-2-yl]-2-oxabicyclo[2.1.1]hexan-5-yl]amino]propan-2-ol]",***** (>2.5° C.=*****)
18,"Cc1cc(N2CC[C@](C)(c3ccccc3)C2)cn2nc(C34CC(CO3)C4N3CC(C)(C)OC3=O)nc12 (stereo partly drawn) [Compound 529, 5,5-dimethyl-3-[1-[8-methyl-6-[(3R)-3-methyl-3-phenyl-pyrrolidin-1-yl]-[1,2,4]triazolo[1,5-a]pyridin-2-yl]-2-oxabicyclo[2.1.1]hexan-5-yl]oxazolidin-2-one]",***** (>2.5° C.=*****)
19,"Cc1cc(N2CC[C@](C)(c3ccccc3)C2)cn2nc(C34CC(CO3)C4NC3(C#N)CC3)nc12 (stereo partly drawn) [Compound 530, 1-((1-(8-methyl-6-((R)-3-methyl-3-phenylpyrrolidin-1-yl)-[1,2,4]triazolo[1,5-a]pyridin-2-yl)-2-oxabicyclo[2.1.1]hexan-5-yl)amino)cyclopropane-1-carbonitrile]",***** (>2.5° C.=*****)
